Assay [1] is described as follows: Inhibition of pig TNAP at pH 10.4 by UV-visible spectrophotometric assay. Further details: species or system Sus scrofa.
A short description of assay [2]: Inhibition of pig TNAP at pH 7.8 by UV-visible spectrophotometric assay. On the set-up: species or system Sus scrofa.

pIC50: −log10 of the molar value. Where a name gives a salt, the structure may show the parent alone.

Our source for the IC50 values is ChEMBL document CHEMBL1759989, “Synthesis and evaluation of thiophenyl derivatives as inhibitors of alkaline phosphatase” (Bioorg Med Chem Lett, 2011).

The term pIC50 denotes the negative decadic logarithm of the IC50, by convention in mol/L. As for `c1cc(-c2cn3ccsc3n2)cs1`, the pIC50 in assay [1] and in assay [2] was less than 3.10 each time.

For the compound `c1cc(-c2cn3c(n2)SCC3)cs1`, the pIC50 in assay [1] and in assay [2] was less than 3.10 each time.

On to `C1=C(c2ccsc2)N2CCN=C2S1`, for which the negative logarithm of the IC50 (pIC50) in assay [1] and in assay [2] was less than 3.10 in each case.

Take `C1=CN2CC(c3ccsc3)N=C2S1` (racemic): the results for the negative-log IC50 (pIC50) in assay [1] and in assay [2] were 4.38 and 4.08, respectively.

Take `c1cc(C2CN3CCSC3=N2)cs1` (racemic): the values for the negative logarithm of the IC50 (pIC50) in assay [1] and in assay [2] were 3.39 and 3.72, respectively.

On to `C1=CN2CC(c3cccs3)N=C2S1` (racemic), for which the negative-log IC50 (pIC50) in assay [1] was 3.48; in assay [2], 3.59.

As to `c1csc(C2CN3CCSC3=N2)c1` (racemic), the negative logarithm of the IC50 (pIC50) in assay [1] and in assay [2] was less than 3.10 in each case.

On to `c1ccc([C@H]2CN3CCSC3=N2)cc1` [LEVAMISOLE HYDROCHLORIDE], for which the negative-log IC50 (pIC50) in assay [1] is 4.03; in assay [2], 4.11.
